Literature values in US9255080B2, “Quinazolinedione derivatives as PARP inhibitors” (Janssen Pharmaceutica NV, priority 2004, dated 2016).

Key:
[1] = test system: ischemia and reperfusion of the heart; details: rabbits, cited from earlier work
[2] = test system: colitis induced by trinitrobenzene sulfonic acid; details: rats, colitis by intraluminal trinitrobenzene sulfonic acid in 50% ethanol; cited from earlier work

| Structure (SMILES) | reduction in infarct size ([1]; single injection 1 mg/kg) | reduction in infarct size in the heart ([1]; single injection 10 mg/kg, one minute before occlusion or one minute before reperfusion) | effect on inflammatory response and distal colon [2] |
| --- | --- | --- | --- |
| Oc1cccc2c(O)nccc12 [1,5-dihydroxyisoquinoline] | 38-48% |  |  |
| NC(=O)c1cccc(N)c1 [3-amino-benzamide] |  | 32-42% | reduced the inflammatory response and restored the morphology and the energetic status of the distal colon |
